From PubChem BioAssay AID179 (DTP/NCI, 2004)
Values joined by “and” are separate entries in the source; they are usually repeats but may differ in a detail not shown here. Equal values may be shown once. Active and inactive are the calls of the source.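 The calls were made as follows: active = compounds giving half or more protection of infected cells from virus-caused growth loss, again on retest; inactive = the rest.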 Where a SMILES comes first, the peptide text is derived from it. [ ]: non-standard residue; d: D form. Ava = NCCCCC(=O)O; Mpa = O=C(O)CCS

System: CEM cells HIV-1 protection, formazan growth assay
Assay: NCI AIDS Antiviral Assay
Conditions: for IC50: measured here: growth of uninfected CEM cells
Summary of the method: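 Steps: treat uninfected and HIV-1-infected human CEM cells at five drug levels; quantify growth by soluble formazan; retest any compound reaching 50% protection; classify actives from the retest.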

| SMILES | EC50 [µM] | IC50 | outcome |
| --- | --- | --- | --- |
| Cn1nc(-c2cccc(-c3nn(C)c(=NCCO)s3)n2)sc1=NCCO | > 200 | > 200 µM | – |
| CCC(C)C(N)C(=O)NC(C(=O)NC(CO)C(=O)NC(C)C(=O)NC(CO)C(=O)NC(C(=O)NC(CCCCN)C(=O)NC(CCCCN)C(=O)NC(CO)C(=O)NC(Cc1ccccc1)C(=O)O)C(C)CC)C(C)CC (stereo not given) (H-IISASIKKSF-OH; configuration not given here) | – | – | inactive |
| Cc1nnnn1[C@H]1C(C#N)CC2[C@@H]3CCC4=Cc5nnnn5CC[C@]4(C)C3CC[C@@]21C (stereo not given in full) | > 85.1 | > 85.1 µM | – |
| COc1ccc(Cc2nnc(C)c3c(C)[nH]nc23)cc1 | > 525 | 33.9 µM | – |
| C/C(=C\C(=O)c1ccc(Sc2ccccc2)cc1)c1ccc(Sc2ccccc2)cc1 | > 200 | 102 µM | – |
| CCN(CC)C(=S)SS(=O)(=O)c1ccc(Cl)cc1 | > 200 | 12 µM | – |
| N#Cc1ccccc1NC(=O)/C(=N\N)C(C(=O)c1ccncc1)C1OC(=O)c2ccccc21 (stereo not given) | – | – | inactive |
| C[C@@H]1C[C@H]2[C@@H]3CCC4=CC(=O)C=C[C@]4(C)[C@@]3(F)[C@@H](O)C[C@]2(C)[C@H]1O | – | – | inactive |
| Nc1ccc(N=Nc2ccc(-c3ccc(O)cc3)cc2)c2ccc(S(=O)(=O)O)cc12 | 7.94 | > 200 µM | – |
| CCCCCC=C(c1cc(Cl)c(OC)c(C(N)=O)c1)c1cc(Cl)c(OC)c(C(N)=O)c1 | 1.82 | 15.8 µM | – |
| O=[N+]([O-])c1ccc(C2CC3(c4ccccc4)ON=C(c4ccccc4)N3c3ccccc3S2)cc1 (stereo not given) | > 200 | 102 µM | – |
| CCOC(=O)c1c(NC(=O)C(F)(F)F)[nH]c(SSc2[nH]c(NC(=O)C(F)(F)F)c(C(=O)OCC)c2C(=O)OCC)c1C(=O)OCC | > 89.1 | 4.27 µM | – |
| CCC(C)C1(O)OC2CC3(C)OC(=CC3=O)/C(C)=C\C3OC(=O)C1(C)C32 (stereo not given) | > 138 | 7.59 µM | – |
| O=C1C(Cl)C(c2ccccc2)N1n1cnc2ccccc2c1=O (stereo not given) | > 79.4 | > 79.4 µM | – |
| CC(C)(C)C1=NC(=S)SC2=NC(=O)C3(NN21)c1ccccc1-c1ccccc13 | > 200 | 20 µM | – |
| O=C1c2cccc3cc([N+](=O)[O-])cc(c23)C(=O)N1CCCN1CCN(CCCNc2ccc3ncn4c5ccccc5c(=O)c2c34)CC1 | > 0.00501 | 0.0049 µM | – |
| CCCNc1c(Cl)cc(Cl)c2[nH]c3ccccc3c(=O)c12 | > 200 | 23.4 µM | – |
| CC(NC(=O)c1ccccc1)C(=O)N(Cc1ccccc1)Cc1ccccc1 (stereo not given) | > 97.7 | > 97.7 µM | – |
| CCC1(O)C(=O)OCc2c1cc1n(c2=O)Cc2cc3cc(N)ccc3nc2-1 (stereo not given) | > 0.1 | 0.0794 µM | – |
| Cc1cc[n+](CC(=O)CC([O-])(C(F)(F)F)C(F)(F)F)cc1 | > 200 | > 200 µM | – |

| SMILES | EC50 [µM] | IC50 | outcome |
| --- | --- | --- | --- |
| COC(=O)[C@@](NC(=O)OCc1ccccc1)([C@H](C)O)C(F)(F)F | > 200 | 110 µM | – |
| COc1cc2c3c(ccc2cc1O)-c1cc(OC)c(OC)cc1C[N+]3(C)C | > 4.47 | > 4.47 µM | – |
| CCOC(=O)C1(N)CC1 | > 200 | > 200 µM | – |
| C=CS(=O)(=O)c1c2cc(OC)ccc2nc2ccc(OC)cc12 | > 20 | 2.88 µM | – |
| CN(C)CCCSCCOc1nccc(-c2ccc(-c3ccc(-c4ccnc(OCCSCCCN(C)C)n4)s3)s2)n1 | 1.1 | 2.75 µM | – |
| O=C(c1nc2ccccc2[nH]c1=O)C(O)c1ccco1 (stereo not given) | > 794 | 380 µM | – |
| CC(NC(=O)CCS)C(=O)NC(C)C(=O)NC(Cc1c[nH]c2ccccc12)C(=O)NC(Cc1c[nH]cn1)C(=O)NC(CO)C(=O)NC(Cc1c[nH]c2ccccc12)C(=O)NCCCCC(=O)NC(C)C(=O)NC(CCC(N)=O)C(=O)NC(CCCCN)C(=O)NC(C)C(=O)NC(CCCNC(=N)N)C(=O)NC(CCCCN)C(N)=O (stereo not given) ([Mpa]AAWHSW[Ava]AQKARK-NH2; configuration not given here) | > 20 | > 20 µM | – |
| CCOC(=O)c1nc2ccccc2nc1Oc1ccc(C#N)cc1 | > 200 | > 200 µM | – |
| O=COC1CC(n2ccc(=O)[nH]c2=O)OC1CO (stereo not given) | > 4570 | 263 µM | – |
| CC(=O)c1ccccc1NS(=O)(=O)c1ccc2nc(C)n(NS(=O)(=O)c3ccccc3C(C)=O)c(=O)c2c1 | > 200 | > 200 µM | – |
| CC1(c2ccc(F)cc2)C2C(=O)NC(=O)C1C(=O)NC2=O (stereo not given) | > 871 | 575 µM | – |
| O=C(N=C1[Se]C(=Nc2ccccc2)C(=Nc2ccccc2)N1c1ccccc1)c1ccc([N+](=O)[O-])cc1 | > 200 | > 200 µM | – |
| CN(c1ccccc1)S(=O)(=O)c1ccc(Cl)cc1 | > 200 | – | – |
| CC(C)C1=C(Cc2ccccc2)C(=O)O/C1=C\c1cc(Cl)c(O)c(Cl)c1 | > 200 | 32.4 µM | – |
| COc1ccccc1/C=C1\S/C(=N/Nc2nc(C)c(C(C)=O)s2)NC1=O | > 200 | 112 µM | – |
| COc1cccc2ccc3c(c12)C(O)OC31CCc2c(C)cccc21 (stereo not given) | > 85.1 | 42.7 µM | – |
| COc1cc2c(cc1OC)C1CC(=O)C(CCCCCCC3CN4CCc5cc(OC)c(OC)cc5C4CC3=O)CN1CC2 (stereo not given) | – | – | inactive |
| Cc1ccc(NCC(=O)N2CC(=O)Nc3ccccc32)c(C)c1 | > 17 | > 17 µM | – |
| C/C(CN1C(=O)c2ccccc2C1=O)=N\NS(=O)(=O)c1ccc(F)cc1 | > 479 | > 479 µM | – |
| C#CC(O)Cc1ccc(OC)c2occc12 (stereo not given) | > 200 | 117 µM | – |

| SMILES | EC50 [µM] | IC50 | outcome |
| --- | --- | --- | --- |
| Nn1c(SSSSc2nnc(-c3ccccc3)n2N)nnc1-c1ccccc1 | > 200 | > 200 µM | – |
| Cc1cc(-c2ccc[nH]2)on1 | > 200 | > 200 µM | – |
| Cc1ccc(S(=O)(=O)N/N=C2\CCCCCCCCCCC2CN(C)C)cc1 (stereo not given) | > 200 | 28.2 µM | – |
| C1CCC(OC2CSC2)OC1 (stereo not given) | > 389 | > 389 µM | – |
| O=C1CCN2C(=O)CCN12 | > 1780 | > 1780 µM | – |
| CCN(CC)C(=O)CCN1CC1 | > 200 | > 200 µM | – |
| O=C1CNc2cc(N3CCCCC3)ccc2N1 | > 200 | 66.1 µM | – |
| CC(C)CCC[C@@H](C)C1CCC2[C@@H]3CCC4C[C@H](CCC=C(c5cc(Cl)c(O)c(C(=O)O)c5)c5cc(Cl)c(O)c(C(=O)O)c5)CC[C@]4(C)C3CC[C@@]21C (stereo not given in full) | 35.5 | > 200 µM | – |
| Cc1ccc2c(=O)c3cccc(CC(=O)O)c3[nH]c2c1C | > 200 | 47.9 µM | – |
| Cc1ccc2nc(NC(=O)C(=O)CC(=O)c3cccc4ccccc34)sc2c1 | > 33.9 | > 33.9 µM | – |
| CC(=O)Nc1ccc(/C=N/Nc2nnc(N/N=C/c3ccc(NC(C)=O)cc3)c3ccccc23)cc1 | > 200 | 7.59 µM | – |
| Cc1ccc(S(=O)(=O)N2CCSCCSCCSCCN(S(=O)(=O)c3ccc(C)cc3)CC2)cc1 | > 12.6 | > 12.6 µM | – |
| c1ccc2c(c1)[nH]c1c2nc2sccn21 | > 234 | > 145 µM and 214 µM | – |
| Cc1ccc(N=NN(C)C(C)C(O)Cc2ccccc2)cc1 (stereo not given) | > 200 | 77.6 µM | – |
| COc1ccc(/C=c2\c(=O)[nH]c3nc4ccccc4c(=O)n23)cc1 | > 200 | 34.7 µM | – |
| CCO/C=N\c1c(C#N)c(-c2ccc(Cl)cc2)cn1-c1ccc(C)cc1 | > 200 | 25.1 µM | – |
| O=C1CCCC12CCOC2=O (stereo not given) | > 1620 | > 1620 µM | – |
| O=c1n(-c2ccccc2)c(=O)n2n1C1C=CC2C2C(C1)C2(Cl)Cl (stereo not given) | – | – | inactive |
